# Results as given in ChEMBL document CHEMBL1799917, “Isolation, sequencing, and structure-activity relationships of cyclotides” (J Nat Prod, 2010).
# Where a SMILES comes first, the peptide text is derived from it. Bridges are numbered along the chain shown (N, C = ends). [ ]: non-standard residue; d: D form. aThr = C[C@H](O)[C@H](N)C(=O)O
# What was measured:
# [1] = tested on: Human immunodeficiency virus 1; experiment: Antiviral activity against HIV1 infected in human CEM-SS cells assessed as protection against virus-induced cytopathic effect by XTT method; assay type: functional, organism-based; conditions: Human immunodeficiency virus 1, CEM-SS
# [2] = Hemolytic activity in human type A RBC assessed as concentration required to cause 11% hemolysis after 1 hr by microtitre plate; assay type: ADME, cell-based; conditions: erythrocyte
# Escherichia coli = experiment: Antimicrobial activity against Escherichia coli ATCC 25922; assay type: functional
# [3] = Hemolytic activity in human type A RBC; assay type: ADME, cell-based, Erythrocyte; conditions: human type A red blood cells, read-out: HD50 (the source's name)
# Klebsiella oxytoca = experiment: Antimicrobial activity against Klebsiella oxytoca ATCC 49131; assay type: functional
# Staphylococcus aureus = experiment: Antimicrobial activity against Staphylococcus aureus ATCC 29213; assay type: functional
# Kluyveromyces marxianus = experiment: Antimicrobial activity against Candida kefyr ATCC 37095; assay type: functional
# CEM-SS (Homo sapiens) = experiment: Cytotoxicity against human CEM-SS cells
# R1 = experiment: Cytotoxicity against mouse R1 cells after 72 hrs by fluorometric microculture cytotoxicity assay; assay type: cell-based; conditions: R1, 72 h
# Pseudomonas aeruginosa = experiment: Antimicrobial activity against Pseudomonas aeruginosa ATCC 27853; assay type: functional
# Proteus vulgaris = experiment: Antimicrobial activity against Proteus vulgaris ATCC 49132; assay type: functional
# Candida tropicalis = experiment: Antimicrobial activity against Candida tropicalis ATCC 37097; assay type: functional
# [4] = Hemolytic activity in human RBC; assay type: ADME, cell-based, Erythrocyte; conditions: human red blood cells, read-out: HD50 (the source's name)
# U-937/GTB = experiment: Cytotoxicity against human U937/GTB cells after 72 hrs by fluorometric microculture cytotoxicity assay; assay type: functional, cell-based
# [5] = Cytotoxicity against human 8226/DOX40 cells after 72 hrs by fluorometric microculture cytotoxicity assay; assay type: functional, cell-based
# CCRF-CEM = experiment: Cytotoxicity against human CCRF-CEM cells after 72 hrs by fluorometric microculture cytotoxicity assay; assay type: functional, cell-based
# [6] = Cytotoxicity against human CEM/VM1 cells after 72 hrs by fluorometric microculture cytotoxicity assay; assay type: functional, cell-based; conditions: CEM-VM1, 72 h
# U-937 = experiment: Cytotoxicity against human vincristine-resistant U937 cells after 72 hrs by fluorometric microculture cytotoxicity assay; assay type: functional, cell-based; conditions: U-937, 72 h
# RPMI-8226 = experiment: Cytotoxicity against human RPMI8226/S cells after 72 hrs by fluorometric microculture cytotoxicity assay; assay type: functional, cell-based
# ACHN = experiment: Cytotoxicity against human ACHN cells after 72 hrs by fluorometric microculture cytotoxicity assay; assay type: functional, cell-based
# [7] = Cytotoxicity against human 8226/LR-5 cells after 72 hrs by fluorometric microculture cytotoxicity assay; assay type: functional, cell-based
smiles,measurement,setting,value
"CC[C@H](C)[C@@H]1NC(=O)[C@H](CCSC)NC(=O)[C@H](C)NC(=O)[C@@H]2CSSC[C@@H]3NC(=O)[C@H](CO)NC(=O)[C@@H]4CSSC[C@H](NC(=O)[C@H](CO)NC(=O)[C@H]([C@@H](C)CC)NC(=O)[C@H](CO)NC(=O)[C@H](CC(N)=O)NC(=O)[C@H](CC(C)C)NC(=O)[C@H](Cc5ccc(O)cc5)NC(=O)[C@H](CSSC[C@H](NC(=O)[C@H](Cc5ccccc5)NC(=O)[C@H](CO)NC1=O)C(=O)N[C@@H](Cc1ccccc1)C(=O)N[C@@H]([C@@H](C)O)C(=O)N[C@@H](CCC(=O)O)C(=O)N[C@@H](C(C)C)C(=O)N[C@@H]([C@@H](C)CC)C(=O)NCC(=O)N4)NC(=O)[C@H](C(C)C)NC(=O)[C@H](CCCCN)NC(=O)[C@H](CC(N)=O)NC(=O)[C@H](CCCCN)NC3=O)C(=O)NCC(=O)N[C@@H](CCC(=O)O)C(=O)N[C@@H](CO)C(=O)N2 (cyclo(AMISFCFTEVIGCSCKNKVCYLNSISCGESC); disulfide 6-20, 13-27, 15-31)",EC50,[1],870 nM
"CC[C@H](C)[C@@H]1NC(=O)[C@H](CO)NC(=O)CNC(=O)[C@H](CC(N)=O)NC(=O)[C@H](CCCCN)NC(=O)[C@H](C)NC(=O)[C@@H]2CSSC[C@@H]3NC(=O)[C@H](CCCCN)NC(=O)CNC(=O)[C@H](C)NC(=O)[C@H](Cc4ccccc4)NC(=O)[C@@H]4CSSC[C@H](NC(=O)[C@H](CO)NC(=O)[C@H](CSSC[C@H](NC(=O)[C@H](C)NC(=O)[C@@H]5CCCN5C1=O)C(=O)NCC(=O)N[C@@H](CCC(=O)O)C(=O)N[C@@H](CO)C(=O)N4)NC(=O)CNC(=O)[C@@H]1CCCN1C(=O)[C@H]([C@@H](C)O)NC(=O)[C@H](Cc1ccc(O)cc1)NC3=O)C(=O)N[C@@H](CO)C(=O)N[C@@H](CCCCN)C(=O)N[C@@H](Cc1ccc(O)cc1)C(=O)N1CCC[C@H]1C(=O)N[C@@H](CC(C)C)C(=O)N2 [CYCLOVIOLACIN O14] (cyclo(ACGESCFAGKCYTPGCSCSKYPLCAKNGSIP); disulfide 2-16, 6-18, 11-24)",Activity,[2],25 µM
"CC[C@H](C)[C@@H]1NC(=O)[C@@H]2CCCN2C(=O)[C@H](Cc2ccc(O)cc2)NC(=O)[C@H](CO)NC(=O)[C@@H]2CSSC[C@@H]3NC(=O)[C@H]([C@@H](C)O)NC(=O)[C@H](CCC(=O)O)NC(=O)CNC(=O)[C@@H]4CSSC[C@H](NC(=O)CNC(=O)[C@@H]5CCCN5C(=O)[C@H]([C@@H](C)O)NC(=O)[C@H](Cc5ccc(O)cc5)NC(=O)[C@H](CSSC[C@H](NC1=O)C(=O)N[C@@H](CCCCN)C(=O)N[C@@H](CCCCN)C(=O)N[C@@H](CC(N)=O)C(=O)NCC(=O)N[C@@H](CC(C)C)C(=O)N[C@@H](C(C)C)C(=O)N1CCC[C@H]1C(=O)N4)NC(=O)[C@H](CCCCN)NC(=O)CNC(=O)[C@H]([C@@H](C)O)NC(=O)[C@H](Cc1ccccc1)NC3=O)C(=O)N[C@@H](CO)C(=O)N2 [CYCLOVIOLACIN O15] (cyclo(CFTGKCYTPGCSCSYPICKKNGLVPCGET); disulfide 1-13, 6-18, 11-26)",Activity,[2],25 µM
"CC[C@H](C)[C@@H]1NC(=O)[C@@H]2CSSC[C@@H]3NC(=O)[C@H](C(C)C)NC(=O)[C@H](CCCCN)NC(=O)[C@H](CC(N)=O)NC(=O)[C@H](CCCCN)NC(=O)[C@@H]4CSSC[C@H](NC(=O)[C@H](CO)NC(=O)[C@H](CCC(=O)O)NC(=O)CNC(=O)[C@H](CSSC[C@H](NC(=O)CNC(=O)[C@H](CC(C)C)NC(=O)[C@H](CC(C)C)NC(=O)[C@H]([C@@H](C)O)NC(=O)[C@H](CO)NC1=O)C(=O)N[C@@H](CO)C(=O)N4)NC(=O)[C@@H]1CCCN1C(=O)[C@H]([C@@H](C)CC)NC(=O)[C@H](C(C)C)NC(=O)CNC(=O)[C@H](CC(N)=O)NC(=O)[C@H](CCCNC(=N)N)NC(=O)[C@H](Cc1ccc(O)cc1)NC3=O)C(=O)N[C@@H](C(C)C)C(=O)N[C@@H](Cc1ccccc1)C(=O)N[C@@H]([C@@H](C)CC)C(=O)N1CCC[C@H]1C(=O)N2 [CIRCULIN B] (cyclo(CGESCVFIPCISTLLGCSCKNKVCYRNGVIP); disulfide 1-17, 5-19, 10-24)",MIC,Escherichia coli,0.41 µM
same,HC50,[3],550 µM
same,MIC,Klebsiella oxytoca,8.2 µM
same,MIC,Staphylococcus aureus,13.5 µM
same,MIC,Kluyveromyces marxianus,29 µM
same,IC50,CEM-SS (Homo sapiens),500 nM
same,IC50,R1,820000 nM
same,MIC,Pseudomonas aeruginosa,25.5 µM
same,MIC,Proteus vulgaris,6.8 µM
CC[C@H](C)[C@@H]1NC(=O)[C@@H]2CCCN2C(=O)[C@H](CS)NC(=O)CNC(=O)[C@H](CCC(=O)O)NC(=O)[C@H](CO)NC(=O)[C@H](CS)NC(=O)[C@H](C(C)C)NC(=O)[C@H](Cc2ccccc2)NC(=O)[C@H]([C@@H](C)CC)NC(=O)[C@@H]2CCCN2C(=O)[C@H](CS)NC(=O)[C@H]([C@H](C)O)NC(=O)[C@H](C(C)C)NC(=O)[C@H]([C@H](C)O)NC(=O)[C@H](C)NC(=O)[C@H](CC(C)C)NC(=O)[C@H](CC(C)C)NC(=O)CNC(=O)[C@H](CS)NC(=O)[C@H](CO)NC(=O)[C@H](CS)NC(=O)[C@H](CCCCN)NC(=O)[C@H](CO)NC(=O)[C@H](CCCCN)NC(=O)[C@H](C(C)C)NC(=O)[C@H](CS)NC(=O)[C@H](Cc2ccc(O)cc2)NC(=O)[C@H](CCCCN)NC(=O)[C@H](CC(N)=O)NC(=O)[C@H](CO)NC1=O [CYCLOPSYCHOTRIDE A] (cyclo(A[aThr]V[aThr]CPIFVCSEGCPISNKYCVKSKCSCGLL)),MIC,Escherichia coli,1.55 µM
same,HC50,[3],405 µM
same,MIC,Klebsiella oxytoca,5.8 µM
same,MIC,Staphylococcus aureus,39 µM
same,MIC,Kluyveromyces marxianus,14 µM
same,MIC,Candida tropicalis,56.5 µM
same,MIC,Pseudomonas aeruginosa,13.5 µM
same,MIC,Proteus vulgaris,13.2 µM
CC(C)C[C@@H]1NC(=O)CNC(=O)[C@H](CC(N)=O)NC(=O)[C@H](C)NC(=O)[C@H]([C@@H](C)O)NC(=O)[C@@H]2CSSC[C@@H]3NC(=O)[C@H]([C@@H](C)O)NC(=O)CNC(=O)CNC(=O)[C@H](C(C)C)NC(=O)[C@@H]4CSSC[C@H](NC(=O)[C@H](CO)NC(=O)[C@H](CSSC[C@H](NC(=O)[C@H](C(C)C)NC(=O)[C@@H]5CCCN5C1=O)C(=O)NCC(=O)N[C@@H](CCC(=O)O)C(=O)N[C@@H]([C@@H](C)O)C(=O)N4)NC(=O)CNC(=O)[C@@H]1CCCN1C(=O)[C@H]([C@@H](C)O)NC(=O)[C@H](CC(N)=O)NC3=O)C(=O)N[C@@H](CO)C(=O)N[C@@H](CCCNC(=N)N)C(=O)N1CCC[C@H]1C(=O)N[C@@H](C(C)C)C(=O)N2 [VIOLAPEPTIDE 1],HC50,[4],50 µM
CC(C)C[C@@H]1NC(=O)CNC(=O)[C@H](CC(N)=O)NC(=O)[C@H](CCCNC(=N)N)NC(=O)[C@H]([C@@H](C)O)NC(=O)[C@@H]2CSSC[C@@H]3NC(=O)[C@H]([C@@H](C)O)NC(=O)CNC(=O)CNC(=O)[C@H](C(C)C)NC(=O)[C@@H]4CSSC[C@H](NC(=O)[C@H](CO)NC(=O)[C@H](CSSC[C@H](NC(=O)[C@H](C(C)C)NC(=O)[C@@H]5CCCN5C1=O)C(=O)NCC(=O)N[C@@H](CCC(=O)O)C(=O)N[C@@H]([C@@H](C)O)C(=O)N4)NC(=O)CNC(=O)[C@@H]1CCCN1C(=O)[C@H]([C@@H](C)O)NC(=O)[C@H](CC(N)=O)NC3=O)C(=O)N[C@@H](CO)C(=O)N[C@@H](Cc1c[nH]c3ccccc13)C(=O)N1CCC[C@H]1C(=O)N[C@@H](C(C)C)C(=O)N2,IC50,U-937/GTB,2730 nM
same,IC50,[5],2730 nM
same,IC50,CCRF-CEM,2730 nM
same,IC50,[6],2730 nM
same,HC50,[4],50 µM
same,IC50,U-937,2730 nM
same,IC50,RPMI-8226,2730 nM
same,IC50,R1,2730 nM
same,IC50,ACHN,2730 nM
same,IC50,[7],2730 nM
"CC[C@H](C)[C@@H]1NC(=O)[C@@H]2CCCN2C(=O)[C@H](C(C)C)NC(=O)CNC(=O)[C@H](CC(N)=O)NC(=O)[C@H](CCCNC(=N)N)NC(=O)[C@H]([C@@H](C)O)NC(=O)[C@@H]2CSSC[C@@H]3NC(=O)[C@H]([C@@H](C)O)NC(=O)CNC(=O)[C@H](CC(C)C)NC(=O)[C@H]([C@@H](C)O)NC(=O)[C@@H]4CSSC[C@H](NC(=O)[C@H](CO)NC(=O)[C@H](CSSC[C@H](NC1=O)C(=O)NCC(=O)N[C@@H](CCC(=O)O)C(=O)N[C@@H]([C@@H](C)O)C(=O)N4)NC(=O)CNC(=O)[C@H](C)NC(=O)[C@H]([C@@H](C)O)NC(=O)[C@H](Cc1ccc(O)cc1)NC3=O)C(=O)N[C@@H](CO)C(=O)N[C@@H](Cc1c[nH]c3ccccc13)C(=O)N1CCC[C@H]1C(=O)N[C@@H](C(C)C)C(=O)N2 (cyclo(AGCSCSWPVCTRNGVPICGETCTLGTCYT); disulfide 3-18, 5-22, 10-27)",IC50,U-937/GTB,2630 nM
same,IC50,[5],2630 nM
same,IC50,CCRF-CEM,2630 nM
same,IC50,[6],2630 nM
same,IC50,U-937,2630 nM
same,IC50,RPMI-8226,2630 nM
same,IC50,R1,2630 nM
same,IC50,ACHN,2630 nM
same,IC50,[7],2630 nM
